Experimental data taken from patent US20210347709A1, “RADIOFLUORINATED GPC3-BINDING PEPTIDES FOR PET IMAGING OF HEPATOCELLULAR CARCINOMA” (University of Southern California, priority 2020, published 2021).

Columns and labels:
GPC3 = molecular target: T1, GPC3 (Homo sapiens, UniProt P51654); test: Binding assay by surface plasmon resonance (SPR); conditions: GPC3 protein immobilized on 3D Dextran chip
T1 construct: purchased Novoprotein, China
Method: Binding Assay. The binding affinity of the GP2076 or GP2633 peptide for GPC3 was determined using surface plasmon resonance (SPR) measurements (PlexArray HT A100, Plexera, USA). In brief, after the GPC3 protein (Novoprotein, China) was immobilized on a 3D Dextran chip, the GP2076 or GP2633 peptide flowed at increasing concentrations (400 nM and 800 nM). The results were analyzed by PlexeraDE software.

[1] = In vitro biocompatibility (cell counting Kit-8 cell viability); format: cell-based; conditions: human, HepG2 cells, all concentrations 120 to 840 μg/ml
Method: In Vitro Biocompatibility. A colorimetric assay was utilized to determine cell viability after treating GPC3 positive HepG2 cells with the GP2076 or GP2633 peptide. The assay was carried out according to the instruction of the manufacturer. In brief, HepG2 cells were seeded at a density of 1×10^4 cells/well in a 96-well plate. After the incubation of the GP2076 or GP2633 peptide at various concentrations (0, 120, 240, 360, 480, 600, 720, and 840 μg/ml) with HepG2 cells for 24 h, the HepG2 cells were examined using the cell counting Kit-8 (KeyGen Biotech, Nanjing, China). The absorbance at 450 nm of all the wells in the 96-well microplate was recorded on a microplate reader (BIOTEK ELX800, USA). The experiment was performed in quadruplicate.

T1 sequence (P51654 25-554): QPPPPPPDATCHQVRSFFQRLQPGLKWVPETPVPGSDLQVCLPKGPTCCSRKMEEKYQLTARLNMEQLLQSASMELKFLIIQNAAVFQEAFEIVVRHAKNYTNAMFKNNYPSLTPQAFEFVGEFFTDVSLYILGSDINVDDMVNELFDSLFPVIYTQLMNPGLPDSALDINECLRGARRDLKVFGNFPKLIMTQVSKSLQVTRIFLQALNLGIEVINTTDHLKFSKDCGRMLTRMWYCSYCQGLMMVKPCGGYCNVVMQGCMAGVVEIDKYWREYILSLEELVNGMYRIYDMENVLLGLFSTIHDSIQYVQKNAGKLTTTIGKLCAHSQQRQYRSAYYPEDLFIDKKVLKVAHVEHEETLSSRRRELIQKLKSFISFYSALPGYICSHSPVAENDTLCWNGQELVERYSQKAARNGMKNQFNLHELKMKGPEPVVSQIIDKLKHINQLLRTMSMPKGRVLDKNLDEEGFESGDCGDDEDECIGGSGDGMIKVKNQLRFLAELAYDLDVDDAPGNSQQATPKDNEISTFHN

Row | Structure (SMILES) | Kd (GPC3) | viability at 24 h [1]
1 | CC(C)C[C@H](NC(=O)[C@H](CCCNC(=N)N)NC(=S)Nc1ccc(CC2CN(CC(=O)O)CCN(CC(=O)O)CCN2CC(=O)O)cc1)C(=O)N[C@@H](CC(N)=O)C(=O)N[C@H](C(=O)NCC(=O)NCC(=O)N[C@H](C(=O)N[C@@H](Cc1ccc(O)cc1)C(=O)N[C@@H](Cc1ccccc1)C(=O)N[C@@H](CC(C)C)C(=O)N[C@H](C(=O)N[C@H](C(=O)N[C@@H](CCCNC(=N)N)C(=O)N[C@@H](CCC(N)=O)C(=O)O)[C@@H](C)O)[C@@H](C)O)[C@@H](C)O)C(C)C (stereo partly shown) [GP2076] | 101 nM | > 90%
2 | CC(C)C[C@H](NC(=O)[C@H](CCCNC(=N)N)NC(=O)[C@H](CC(N)=O)NC(=O)[C@H](CC(=O)O)NC(=O)[C@H](CCCNC(=N)N)NC(=O)CNC(=O)CNC(=O)CNC(=S)Nc1ccc(CC2CN(CC(=O)O)CCN(CC(=O)O)CCN2CC(=O)O)cc1)C(=O)N[C@@H](CC(N)=O)C(=O)N[C@H](C(=O)NCC(=O)NCC(=O)N[C@H](C(=O)N[C@@H](Cc1ccc(O)cc1)C(=O)N[C@@H](Cc1ccccc1)C(=O)N[C@@H](CC(C)C)C(=O)N[C@H](C(=O)N[C@H](C(=O)N[C@@H](CCCNC(=N)N)C(=O)N[C@@H](CCC(N)=O)C(=O)O)[C@@H](C)O)[C@@H](C)O)[C@@H](C)O)C(C)C (stereo partly shown) [GP2633] | 63.3 nM | > 90%
